Reference: patent US20170226142A1 (Achillion Pharmaceuticals, Inc., priority 2014, published 2017)
Read-outs that look alike come from different tables or passages of the source.

Target: T1, Human factor D (Homo sapiens, UniProt P00746)
T1 construct: purified from human serum; purchased Complement Technology, Inc; host or cells: human serum
Experiment: Human Factor D Assay (Factor D inhibition assay)
Format: biochemical
Description: Routine changes in starting materials and reaction conditions, readily apparent to those of skill in the art, were used to make the particular compounds disclosed in Table 2.
Human factor D (purified from human serum, Complement Technology, Inc.) at 80 nM final concentration is incubated with test compound at various concentrations for 5 minutes at room temperature in 50 mM Tris, 1M NaCl, pH 7.5. A synthetic substrate Z-L-Lys-SBzl and DTNB (Ellman's reagent) are added to final concentrations of 100 µM each. The increase in color is recorded at OD405 nm in a microplate in kinetic mode over 30 minutes with 30 second time points in a […]. IC50 values are calculated by non-linear regression from the percentage of inhibition of complement factor D activity as a function of test compound concentration.

[1] = Factor D 80 nM, substrate Z-L-Lys-SBzl, DTNB, pH 7.5, read-out: IC50

T1 sequence (P00746 26-253): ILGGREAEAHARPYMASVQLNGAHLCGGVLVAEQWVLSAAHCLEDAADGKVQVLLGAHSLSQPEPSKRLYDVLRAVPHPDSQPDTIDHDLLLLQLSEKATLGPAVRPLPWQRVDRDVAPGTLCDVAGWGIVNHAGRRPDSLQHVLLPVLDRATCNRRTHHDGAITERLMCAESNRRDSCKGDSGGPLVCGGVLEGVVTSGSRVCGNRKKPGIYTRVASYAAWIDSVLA

IC50 [1] [nM]	Structure (SMILES)	other results
< 1000	CC(=O)c1nn(CC(=O)N2C[C@H](F)C[C@H]2C(=O)Nc2cccc(SC(F)(F)F)c2)c2cnccc12 [Compound 53, (2S,4R)-1-(2-(3-acetyl-1H-pyrazolo[3,4-c]pyridin-1-yl)acetyl)-4-fluoro-N-(3-((trifluoro-methyl)thio)phenyl)pyrrolidine-2-carboxamide]	–
> 10000	O=C(NCc1cccc(Cl)c1F)[C@@H]1C[C@@H](F)CN1C(=O)Cn1nc(P(=O)(O)O)c2ccncc21 [Compound 65]	–
–	CCOP(=O)(OCC)c1ccc2c(C(C)=O)cn(CC(=O)N3[C@@H]4CCC[C@@H]4C[C@H]3C(=O)NCc3cccc(Cl)c3F)c2c1 [Compound 76, diethyl 1-(2-((2S,3aR,6aR)-2-((3-chloro-2-fluorobenzyl)carbamoyl)-hexahydrocyclopenta[b]pyrrol-1(2H)-yl)-2-oxoethyl)-3-acetyl-1H-indol-6-ylphosphonate]	IC50 (read-out: IC50): < 1000 nM
1000 to 10000	C=CC1C[C@]1(NC(=O)[C@@H]1C[C@@H](F)CN1C(=O)Cn1cc(C(C)=O)c2ccc(O)cc21)C(=O)NS(=O)(=O)C1CC1 (stereo partly drawn) [Compound 88, (2S,4R)-1-(2-(3-acetyl-6-hydroxy-1H-indol-1-yl)acetyl)-N-((1R)-1-(cyclopropylsulfonylcarbamoyl)-2-vinylcyclopropyl)-4-fluoropyrrolidine-2-carboxamide]	–
< 1000	CC(=O)c1cn(CC(=O)N2CCOC[C@H]2C(=O)NCc2cccc(Cl)c2F)c2cc(C(=O)O)ccc12 [Compound 159, (S)-1-(2-(3-((3-chloro-2-fluorobenzyl)carbamoyl)morpholino)-2-oxoethyl)-3-acetyl-1H-indole-6-carboxylic acid]	–
–	NC(=O)c1nn(CC(=O)N2C[C@H](F)C[C@H]2C(=O)Nc2cccc(-c3ccccc3Cl)c2F)c2cc(C(=O)NS(=O)(=O)C3CC3)ccc12 [Compound 212]	IC50 (pH 7.5, read-out: IC50): < 1000 nM
–	CC(=O)c1cn(CC(=O)N2C[C@H](F)C[C@H]2C(=O)Nc2cccc(Oc3ccccc3)c2)c2cc(OCP(=O)(O)O)ccc12 [Compound 232, (((3-acetyl-1-(2-((2S,4R)-4-fluoro-2-((3-phenoxyphenyl)carbamoyl)pyrrolidin-1-yl)-2-oxoethyl)-1H-indol-6-yl)oxy)methyl)phosphonic acid]	IC50: 1000 to 10000 nM

Structure (SMILES)	IC50 [1] [nM]	other results
CC(=O)c1cn(CC(=O)N2C[C@H](F)C[C@H]2C(=O)NCc2cccc(Cl)c2F)c2ccc(C#Cc3cccc(OC(F)(F)F)c3F)cc12 [Compound 177, (2S,4R)-1-(2-(3-acetyl-5-((2-fluoro-3-(trifluoromethoxy)phenyl)ethynyl)-1H-indol-1-yl)acetyl)-N-(3-chloro-2-fluorobenzyl)-4-fluoropyrrolidine-2-carboxamide]	1000 to 10000	–
CC(=O)c1cn(CC(=O)N2C[C@H](F)C[C@H]2C(=O)NCc2cccc(Cl)c2F)c2ccc(NC(=O)OC3CC3)cc12 [Compound 186, cyclopropyl (3-acetyl-1-(2-((2S,4R)-2-((3-chloro-2-fluorobenzyl)carbamoyl)-4-fluoropyrrolidin-1-yl)-2-oxoethyl)-1H-indol-5-yl)carbamate]	< 1000	–
